Assay results: patent US10858413B2, “Immunoglobulins and uses thereof” (Janssen Pharmaceutica NV, priority 2016, dated 2020)
Marks after values point to notes of the source that are not given here.

Experiments:
[1] = system: DIO mice; assay: Single-dose efficacy in DIO mice: food intake; conditions: single s.c. dose 0.3 nmol/kg
[2] = system: DIO mice; assay: Repeat dosing in DIO mice: fasting glucose, insulin, FGF21, plasma lipids; format: in vivo, mouse; conditions: after repeated dosing, 0.3 nmol/kg s.c. daily
Experimental: (§1) To control for the dosing frequency, all animals were dosed daily. Dosing frequency was determined on the basis of DIO mouse PK data for compound 2 and dulaglutide. Animals in the dulaglutide group received this drug daily. The vehicle-treated animals received vehicle daily. […] The day prior to initiating of dosing, animals were weighed and grouped by body weight. […].
(§2) Beginning 24-hr after the first dosing, three groups of mice were pair-fed (PF) to the 1.0, 2.0, or 4.0 nmol/kg compound 2-treated animals. The amount of food in the hopper of pair-fed mice was adjusted to match the average food consumed in the previous 24 hours by mice in the compound treatment group to which they were being matched. All PF groups were dosed daily with vehicle. On the ninth day (or Day 10 for the pair-fed groups), animals were fasted for 6 hours and body weight and fasting glucose were measured. Blood was collected for measurements of insulin, FGF21 and plasma lipids. The food intake, body weight, body composition, fasting glucose, fasting insulin, fasting FGF21, and fasting plasma lipid data are shown in tables 20-26.

[3] = system: DIO mice; assay: Repeat dosing in DIO mice: daily food intake; format: in vivo, mouse; conditions: 0.3 nmol/kg s.c. daily
Experimental: as §1, §2

[4] = system: DIO mice; assay: Single-dose efficacy in DIO mice: fasting glucose, IPGTT glucose and insulin; conditions: single s.c. dose 0.3 nmol/kg
[5] = system: DIO mice; assay: Fed blood glucose in DIO mice after 8 days of treatment; format: in vivo, mouse; conditions: 0.3 nmol/kg s.c. every day
Experimental: (§3) Compound 1 was evaluated for its ability to reduce foot intake and body weight and improve glucose homeostasis on repeat dosing in male DIO C57B1/6 mice over a period of 8 days. Male DIO C57BL/6N mice (20 weeks of age, 14 weeks on high fat diet) were obtained from Taconic Laboratory. […] Animals were acclimated to the facility for at least one week prior to the start of the experiment.
(§4) The day prior to dosing, mice were grouped based on individual body weights. At 3:00-4:00 pm for each of the next 8 days, animals and food intake were weighed. […] After 8 days, mice are fasted for 5 hours and then given a 2 g/kg bolus of glucose orally at t=0. At t=0, 30, 60, 90, and 120 minutes post glucose challenge blood glucose is measured and at t=0, 30, and 90 minutes blood in drawn to measure plasma insulin. […] All data are presented as the mean±SEM (FIGS. 8 and 9, and Tables 5-8).

[6] = Repeat dosing in DIO mice: body weight change and body composition; format: in vivo, mouse; conditions: 0.3 nmol/kg s.c. daily
Experimental: as §1, §2

[7] = system: DIO mice; assay: OGTT (blood glucose, insulin) in DIO mice after 8 days of treatment; format: in vivo, mouse; conditions: 0.3 nmol/kg s.c. every day
Experimental: as §3, §4

[8] = Single-dose efficacy in DIO mice: body weight change; conditions: single s.c. dose 0.3 nmol/kg, 18 hours after treatment, relative to day 0
[9] = system: DIO mice; assay: Single-dose efficacy in DIO mice: plasma FGF21; conditions: 26 hours after treatment, single s.c. dose 0.3 nmol/kg
[10] = target: T1, PTHR1 (Homo sapiens, UniProt Q03431); assay: class B GPCR cAMP assay, PTHR1; format: cell-based
T1 construct: host or cells: cells of an unnamed vendor
T1 sequence (Q03431 27-593): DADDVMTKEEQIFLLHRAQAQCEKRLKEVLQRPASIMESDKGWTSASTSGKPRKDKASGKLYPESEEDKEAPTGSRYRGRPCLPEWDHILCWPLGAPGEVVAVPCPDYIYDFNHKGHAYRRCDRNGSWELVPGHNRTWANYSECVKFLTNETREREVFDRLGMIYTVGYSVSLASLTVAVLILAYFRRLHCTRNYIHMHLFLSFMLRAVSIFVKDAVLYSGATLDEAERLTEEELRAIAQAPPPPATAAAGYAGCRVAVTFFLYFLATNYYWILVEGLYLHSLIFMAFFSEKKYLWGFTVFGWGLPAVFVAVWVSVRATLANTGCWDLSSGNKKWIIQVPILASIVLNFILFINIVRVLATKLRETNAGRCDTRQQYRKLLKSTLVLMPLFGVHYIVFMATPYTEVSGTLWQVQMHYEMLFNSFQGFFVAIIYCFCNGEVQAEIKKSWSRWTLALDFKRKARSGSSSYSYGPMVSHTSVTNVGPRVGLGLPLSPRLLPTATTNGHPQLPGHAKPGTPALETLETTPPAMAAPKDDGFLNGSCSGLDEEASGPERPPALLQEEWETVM
Experimental: The assays were performed according to the vendor's standard operating procedures with a positive control included for each receptor tested.

## Dulaglutide: GLP1R agonist (long-acting GLP-1 receptor agonist) [reference compound]
[1]; 18 hours post-dose
  food intake: 1.5 ± 0.1*^ grams
[1]; 24 hours pre-dose
  food intake: 3.1 ± 0.1 grams
[2]
  6 hour fasting Blood Glucose: 123 ± 5 mg/dL
  6 hour fasting Plasma Insulin: 1.4 ± 0.2 ng/mL
  6 hour fasting plasma FGF21: 0.5 ± 0.1 ng/mL
  plasma Free Fatty Acids: 73.2 ± 12.0 µmol/L
  plasma Free Glycerol: 0.5 ± 0.1 mmol/L
  plasma Total cholesterol: 146.1 ± 3.3 mg/dL
  plasma Tri-glycerides: 24.1 ± 2.3 mg/dL
[3]; day 0
  daily food intake: 3.1 ± 0.2 grams
[3]; day 1
  daily food intake: 1.5 ± 0.2 grams
[3]; day 2
  daily food intake: 1.3 ± 0.2 grams
[3]; day 3
  daily food intake: 1.7 ± 0.3 grams
[3]; day 4
  daily food intake: 1.9 ± 0.2 grams
[3]; day 5
  daily food intake: 2.1 ± 0.2 grams
[3]; day 6
  daily food intake: 2.2 ± 0.2 grams
[3]; day 7
  daily food intake: 2.3 ± 0.2 grams
[3]; day 8
  daily food intake: 2.9 ± 0.4 grams
[3]; day 9
  daily food intake: 2.5 ± 0.2 grams
[4]; 24 hours after treatment
  6 hour fasting Blood Glucose: 140 ± 7 mg/dL
  Blood Glucose Net AUC during an IPGTT: 8471 ± 1204
[4]; 24 hours after treatment, 0 min
  blood glucose during an IPGTT: 140 ± 7 mg/dL
[4]; 24 hours after treatment, 10 min
  blood glucose during an IPGTT: 264 ± 18 mg/dL
[4]; 24 hours after treatment, 30 min
  blood glucose during an IPGTT: 267 ± 22 mg/dL
[4]; 24 hours after treatment, 60 min
  blood glucose during an IPGTT: 228 ± 12 mg/dL
[4]; 24 hours after treatment, 90 min
  blood glucose during an IPGTT: 193 ± 9 mg/dL
[4]; 10 minutes post-glucose (IPGTT)
  Plasma Insulin: 1.7 ± 0.2 ng/mL
[4]; Pre-glucose (24 hours after treatment)
  Plasma Insulin: 1.6 ± 0.2 ng/mL
[5]
  fed Blood Glucose: 114 ± 13 mg/dL
[6]; day 0, relative to day 0
  percent body weight change: 0.0%
[6]; day 1, relative to day 0
  percent body weight change: −3.7 ± 0.3%
[6]; day 2, relative to day 0
  percent body weight change: −6.2 ± 0.6%
[6]; day 3, relative to day 0
  percent body weight change: −7.8 ± 0.8%
[6]; day 4, relative to day 0
  percent body weight change: −9.2 ± 0.8%
[6]; day 5, relative to day 0
  percent body weight change: −10.1 ± 0.8%
[6]; day 6, relative to day 0
  percent body weight change: −10.2 ± 0.8%
[6]; day 7, relative to day 0
  percent body weight change: −10.7 ± 1.0%
[6]; day 8, relative to day 0
  percent body weight change: −11.1 ± 0.9%
[6]; day 9, relative to day 0
  percent body weight change: −13.1 ± 1.1%
[6]; after repeated dosing
  body composition: Fat Mass: 7.6 ± 1.1 g
  body composition: Fat, % of Body Weight: 22.8 ± 1.2%
  body composition: Lean Mass: 22.1 ± 0.3 g
  body composition: Lean, % of Body Weight: 61.0 ± 1.7%
[7]
  blood glucose Delta AUC (OGTT): 6668 ± 1846 mg/dl/120 min
  blood glucose Total AUC (OGTT): 15758 ± 1054 mg/dl/120 min
[7]; 0 min after glucose challenge
  blood glucose during an OGTT: 76 ± 9 mg/dL
  insulin during an OGTT: 0.6 ± 0.1 ng/mL
[7]; 30 min after glucose challenge
  blood glucose during an OGTT: 151 ± 14 mg/dL
  insulin during an OGTT: 1.7 ± 0.2 ng/mL
[7]; 60 min after glucose challenge
  blood glucose during an OGTT: 174 ± 17 mg/dL
[7]; 90 min after glucose challenge
  blood glucose during an OGTT: 104 ± 10 mg/dL
  insulin during an OGTT: 0.7 ± 0.2 ng/mL
[7]; 120 min after glucose challenge
  blood glucose during an OGTT: 119 ± 9 mg/dL
[8]
  Weight Change (%): −4.1 ± 0.3 %
[9]
  Plasma FGF21: 0.8 ± 0.2 ng/mL

## CC[C@H](C)[C@H](NC(=O)[C@H](CCC(=O)O)NC(=O)[C@H](CO)NC(=O)[C@@H](NC(=O)[C@@H](N)CO)C(C)C)C(=O)N[C@@H](CCC(N)=O)C(=O)N[C@@H](CC(C)C)C(=O)N[C@@H](CCSC)C(=O)N[C@@H](Cc1cnc[nH]1)C(=O)N[C@@H](CC(N)=O)C(=O)N[C@@H](CC(C)C)C(=O)NCC(=O)N[C@@H](CCCCN)C(=O)N[C@@H](Cc1cnc[nH]1)C(=O)N[C@@H](CC(C)C)C(=O)N[C@@H](CC(N)=O)C(=O)N[C@@H](CO)C(=O)N[C@@H](CCSC)C(=O)N[C@@H](CCC(=O)O)C(=O)N[C@@H](CCCNC(=N)N)C(=O)N[C@H](C(=O)N[C@@H](CCC(=O)O)C(=O)N[C@@H](Cc1c[nH]c2ccccc12)C(=O)N[C@@H](CC(C)C)C(=O)N[C@@H](CCCNC(=N)N)C(=O)N[C@@H](CCCCN)C(=O)N[C@@H](CCCCN)C(=O)N[C@@H](CC(C)C)C(=O)N[C@@H](CCC(N)=O)C(=O)N[C@@H](CC(=O)O)C(=O)N[C@H](C(=O)N[C@@H](Cc1cnc[nH]1)C(=O)N[C@@H](CC(N)=O)C(=O)N[C@@H](Cc1ccccc1)C(=O)O)C(C)C)C(C)C [PTH(1-34)]
[10]
  Curve Bottom: −5.9767
  Curve Top: 101
  Hill: 1.8672
